The text below walks through data of patent publication US8017612B2, “Piperazine compound and use thereof as a HCV polymerase inhibitor” (priority 2006, dated 2011).

Where a name gives a salt, the structure may show the parent alone.

Assay [1] addresses T1, HCV polymerase (NS5B) type 1a (Hepatitis C virus genotype 1a, UniProt P26664).
T1 construct: made in house; host or cells: Escherichia coli (by the 'similar method' of the 1b enzyme)
Put plainly: Assay of enzyme (HCV polymerase) inhibitory activity, type 1a enzyme. Conditions: HCV polymerase inhibitory activity (IC50), 1a, type 1a enzyme 1.5 μg/ml, 25° C., 60 min. The format is biochemical, HCV type 1a (cloned from the blood of patients). In outline:
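IC50 values derive from radioactivity of newly synthesized RNA with versus without test compound. The enzyme was C-terminally truncated type 1a NS5B, 1.5 μg/ml, run 60 min at 25° C with 3H-UTP-labelled nucleotides.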

In assay [2] the target is T2, HCV polymerase (NS5B) type 1b (Hepatitis C virus genotype 1b, UniProt P26663).
T2 construct: a region encoding NS5B (J Virol 1991 March, 65(3), 1105-13, 544 amino acids after deletion of 47 amino acids on the C-terminal); 6xHis (C); made in house; host or cells: Escherichia coli
Put plainly: Assay of enzyme (HCV polymerase) inhibitory activity, type 1b enzyme. The format is biochemical, HCV BK strain (type 1b). The settings on record: HCV polymerase inhibitory activity (IC50), 1b, type 1b enzyme 0.5 μg/ml, 25° C., 60 min. The method, boiled down: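 Polymerase activity was followed as radiolabelled UTP incorporation by E. coli-expressed, His-tagged NS5B of HCV type 1b lacking its last 47 residues. Conditions: 2 μM UTP, 50 μM other NTPs, Mg2+ buffer at pH 7.5, 25 °C for 60 min. Inhibition relative to compound-free reactions gave IC50.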

The term IC50 denotes the point on the concentration scale where inhibition reaches its midpoint. Low values mean higher potency, high ones lower potency. As for `CC(=O)N1CCN(S(=O)(=O)c2cc(Cl)cc(Cl)c2)C(C(=O)NCc2ccc(C(F)(F)F)cc2)C1` (stereo not drawn) [Example 351, 4-acetyl-1-(3,5-dichloro-benzenesulfonyl)-piperazine-2-carboxylic acid 4-trifluoromethyl-benzylamide], the IC50 in assay [1] and in assay [2] was above 1000 nM each time.
In the case of `CC(C)c1ccc(CNC(=O)[C@H]2CN(c3nccn3C)CCN2S(=O)(=O)c2ccc(C(F)(F)F)cc2)cc1` [Example 352, (R)-4-(1-methyl-1H-imidazol-2-yl)-1-(4-trifluoromethyl-benzenesulfonyl)-piperazine-2-carboxylic acid 4-isopropyl-benzylamide], the half-inhibitory concentration (IC50) is above 1000 nM in assay [1] and 100 to 1000 nM in assay [2].
For the compound `CC(C)c1ccc(CNC(=O)[C@H]2CN(c3ncc[nH]3)CCN2S(=O)(=O)c2ccc(C(F)(F)F)cc2)cc1` [Example 353, (R)-4-(1H-imidazol-2-yl)-1-(4-trifluoromethyl-benzenesulfonyl)-piperazine-2-carboxylic acid 4-isopropyl-benzylamide], the 50% inhibitory concentration (IC50) in assay [1] and in assay [2] was 100 to 1000 nM throughout.
Take `CNC(=O)c1sc(N2CCN(S(=O)(=O)c3ccc(OC(F)(F)F)cc3)[C@@H](C(=O)NCc3ccc(C(C)C)cc3)C2)nc1C` [Example 354, (R)-4-(4-methyl-5-methylcarbamoyl-thiazol-2-yl)-1-(4-trifluoromethoxy-benzenesulfonyl)-piperazine-2-carboxylic acid 4-isopropyl-benzylamide]: the IC50 in assay [1] and in assay [2] was below 100 nM each time.
As for `Cc1nc(N2CCN(S(=O)(=O)c3ccc(OC(F)(F)F)cc3)[C@@H](C(=O)NCc3ccc(C(C)C)cc3)C2)sc1C(=O)N(C)C` [Example 355, (R)-4-(5-dimethylcarbamoyl-4-methyl-thiazol-2-yl)-1-(4-trifluoromethoxy-benzenesulfonyl)-piperazine-2-carboxylic acid 4-isopropyl-benzylamide], the IC50 in assay [1] and in assay [2] was below 100 nM throughout.
Take `Cc1cc(C2CC2)ccc1CNC(=O)[C@H]1CN(c2nc(C)c(C(=O)O)s2)CCN1S(=O)(=O)c1ccc(OC(F)(F)F)cc1` [Example 356, 2-[(R)-3-(4-cyclopropyl-2-methyl-benzylcarbamoyl)-4-(4-trifluoromethoxy-benzenesulfonyl)-piperazin-1-yl]-4-methyl-thiazole-5-carboxylic acid]: the IC50 in assay [1] and in assay [2] was below 100 nM each time.
In the case of `CC(C)c1ccc(CNC(=O)[C@H]2CN(c3ncc(C(=O)O)c(O)n3)CCN2S(=O)(=O)c2ccc(C(F)(F)F)cc2)cc1` [Example 357, 4-hydroxy-2-[(R)-3-(4-isopropyl-benzylcarbamoyl)-4-(4-trifluoromethyl-benzenesulfonyl)-piperazin-1-yl]-pyrimidine-5-carboxylic acid], the figures for the IC50 in assay [1] and in assay [2] were above 1000 nM and 100 to 1000 nM, respectively.
On the same counts, the results for `Cc1nc(N2CCN(S(=O)(=O)c3ccc(OC(F)(F)F)cc3)[C@@H](C(=O)NCc3ccc(C(C)C)cc3)C2)sc1C(=O)NCC(=O)OC(C)(C)C` [Example 358, ({2-[(R)-3-(4-isopropyl-benzylcarbamoyl)-4-(4-trifluoromethoxy-benzenesulfonyl)-piperazin-1-yl]-4-methyl-thiazole-5-carbonyl}-amino)-acetic acid tert-butyl ester] are below 100 nM and below 100 nM.
In the same order, the values of `Cc1nc(N2CCN(S(=O)(=O)c3ccc(OC(F)(F)F)cc3)[C@@H](C(=O)NCc3ccc(C(C)C)cc3)C2)sc1C(=O)NCCC(=O)OC(C)(C)C` [Example 359, 3-({2-[(R)-3-(4-isopropyl-benzylcarbamoyl)-4-(4-trifluoromethoxy-benzenesulfonyl)-piperazin-1-yl]-4-methyl-thiazole-5-carbonyl}-amino)-propionic acid tert-butyl ester] are below 100 nM and below 100 nM.
Consider `Cc1nc(N2CCN(S(=O)(=O)c3ccc(OC(F)(F)F)cc3)[C@@H](C(=O)NCc3ccc(C(C)C)cc3)C2)sc1C(=O)NCC(=O)O` [Example 360, ({2-[(R)-3-(4-isopropyl-benzylcarbamoyl)-4-(4-trifluoromethoxy-benzenesulfonyl)-piperazin-1-yl]-4-methyl-thiazole-5-carbonyl}-amino)-acetic acid], for which the IC50 in assay [1] and in assay [2] was below 100 nM throughout.
Turning to `Cc1nc(N2CCN(S(=O)(=O)c3ccc(OC(F)(F)F)cc3)[C@@H](C(=O)NCc3ccc(C(C)C)cc3)C2)sc1C(=O)NCCC(=O)O` [Example 361, 3-({2-[(R)-3-(4-isopropyl-benzylcarbamoyl)-4-(4-trifluoromethoxy-benzenesulfonyl)-piperazin-1-yl]-4-methyl-thiazole-5-carbonyl}-amino)-propionic acid], the IC50 in assay [1] and in assay [2] was below 100 nM each time.
In the case of `CC(C)c1ccc(CNC(=O)[C@H]2CN(c3nc([N+](=O)[O-])n[nH]3)CCN2S(=O)(=O)c2ccc(C(F)(F)F)cc2)cc1` [Example 362, (R)-4-(5-nitro-2H-[1,2,4]triazol-3-yl)-1-(4-trifluoromethyl-benzenesulfonyl)-piperazine-2-carboxylic acid 4-isopropyl-benzylamide], the results for the IC50 in assay [1] and in assay [2] were above 1000 nM and 100 to 1000 nM, respectively.
Turning to `CCCc1ccc(CNC(=O)[C@H]2CN(c3nc(CC)c(C(=O)O)s3)CCN2S(=O)(=O)c2ccc(OC(F)(F)F)cc2)c(C)c1` [Example 363, 4-ethyl-2-[(R)-3-(2-methyl-4-propyl-benzylcarbamoyl)-4-(4-trifluoromethoxy-benzenesulfonyl)-piperazin-1-yl]-thiazole-5-carboxylic acid], the IC50 in assay [1] and in assay [2] was below 100 nM throughout.
Regarding `Cc1cc(C(C)C)ccc1CNC(=O)[C@H]1CN(c2nc(C)c(C(=O)O)s2)CCN1S(=O)(=O)c1ccc(OC(F)(F)F)cc1` [Example 364, 2-[(R)-3-(4-isopropyl-2-methyl-benzylcarbamoyl)-4-(4-trifluoromethoxy-benzenesulfonyl)-piperazin-1-yl]-4-methyl-thiazole-5-carboxylic acid], the IC50 in assay [1] and in assay [2] was below 100 nM throughout.
With `Cc1nc(N2CCN(S(=O)(=O)c3ccc(OC(F)(F)F)cc3)[C@@H](C(=O)NCc3ccc(OC(F)(F)F)cc3)C2)sc1C(=O)O` [Example 365, 4-methyl-2-[(R)-4-(4-trifluoromethoxy-benzenesulfonyl)-3-(4-trifluoromethoxy-benzylcarbamoyl)-piperazin-1-yl]-thiazole-5-carboxylic acid], the IC50 in assay [1] and in assay [2] was below 100 nM each time.
As for `CCc1ccc(CNC(=O)[C@H]2CN(c3nc(C)c(C(=O)O)s3)CCN2S(=O)(=O)c2ccc(OC(F)(F)F)cc2)cc1` [Example 366, 2-[(R)-3-(4-ethyl-benzylcarbamoyl)-4-(4-trifluoromethoxy-benzenesulfonyl)-piperazin-1-yl]-4-methyl-thiazole-5-carboxylic acid], the IC50 in assay [1] and in assay [2] was below 100 nM throughout.
On to `Cc1nc(N2CCN(S(=O)(=O)c3ccc(OC(F)(F)F)cc3)[C@@H](C(=O)NCc3ccc(C(C)(C)C)cc3)C2)sc1C(=O)O` [Example 367, 2-[(R)-3-(4-tert-butyl-benzylcarbamoyl)-4-(4-trifluoromethoxy-benzenesulfonyl)-piperazin-1-yl]-4-methyl-thiazole-5-carboxylic acid], for which the IC50 in assay [1] and in assay [2] was below 100 nM in each case.
In the case of `CC(C)c1ccc(CNC(=O)[C@H]2CN(c3nc(N)n[nH]3)CCN2S(=O)(=O)c2ccc(C(F)(F)F)cc2)cc1` [Example 368, (R)-4-(5-amino-2H-[1,2,4]triazol-3-yl)-1-(4-trifluoromethyl-benzenesulfonyl)-piperazine-2-carboxylic acid 4-isopropyl-benzylamide], the IC50 in assay [1] was above 1000 nM; in assay [2] it was 100 to 1000 nM.
On the same counts, the results for `Cc1nc(N2CCN(S(=O)(=O)c3ccc(OC(F)(F)F)cc3)[C@@H](C(=O)NCc3ccc(C(C)C)cc3)C2)sc1C(=O)N[C@H](C)C(=O)O` [Example 369, (R)-2-({2-[(R)-3-(4-isopropyl-benzylcarbamoyl)-4-(4-trifluoromethoxy-benzenesulfonyl)-piperazin-1-yl]-4-methyl-thiazole-5-carbonyl}-amino)-propionic acid] are below 100 nM and below 100 nM.
In the same order, the values of `Cc1nc(N2CCN(S(=O)(=O)c3ccc(OC(F)(F)F)cc3)[C@@H](C(=O)NCc3ccc(C(C)C)cc3)C2)sc1C(=O)N[C@@H](C)C(=O)O` [Example 370, (S)-2-({2-[(R)-3-(4-isopropyl-benzylcarbamoyl)-4-(4-trifluoromethoxy-benzenesulfonyl)-piperazin-1-yl]-4-methyl-thiazole-5-carbonyl}-amino)-propionic acid] are 100 to 1000 nM and below 100 nM.
On the same counts, the results for `Cc1nc(N2CCN(S(=O)(=O)c3ccc(C(F)(F)F)cc3)[C@@H](C(=O)NCc3ccc(C(C)C)cc3)C2)oc1C(=O)O` [Example 371, 2-[(R)-3-(4-isopropyl-benzylcarbamoyl)-4-(4-trifluoromethyl-benzenesulfonyl)-piperazin-1-yl]-4-methyl-oxazole-5-carboxylic acid trifluoroacetate] are 100 to 1000 nM and 100 to 1000 nM.
